The record followed here is US7476676B2, “Methods for increasing bone formation using inhibitors of glycogen synthase kinase-3β” (Roche Palo Alto LLC, priority 2002, dated 2009).

pIC50: −log10 of the molar value. Like-named read-outs stand apart in the source and are kept apart here.

The target of series [1] is T1, truncated form of recombinant rabbit GSK-3β enzyme (Oryctolagus cuniculus, UniProt G1T8E2).
T1 construct: The construct was cloned in pGEX-3X vector; fused on or other part: GST at the N-terminus (pGEX-3X vector, purified on glutathione sepharose 4B)
T1 sequence (G1T8E2 1-432): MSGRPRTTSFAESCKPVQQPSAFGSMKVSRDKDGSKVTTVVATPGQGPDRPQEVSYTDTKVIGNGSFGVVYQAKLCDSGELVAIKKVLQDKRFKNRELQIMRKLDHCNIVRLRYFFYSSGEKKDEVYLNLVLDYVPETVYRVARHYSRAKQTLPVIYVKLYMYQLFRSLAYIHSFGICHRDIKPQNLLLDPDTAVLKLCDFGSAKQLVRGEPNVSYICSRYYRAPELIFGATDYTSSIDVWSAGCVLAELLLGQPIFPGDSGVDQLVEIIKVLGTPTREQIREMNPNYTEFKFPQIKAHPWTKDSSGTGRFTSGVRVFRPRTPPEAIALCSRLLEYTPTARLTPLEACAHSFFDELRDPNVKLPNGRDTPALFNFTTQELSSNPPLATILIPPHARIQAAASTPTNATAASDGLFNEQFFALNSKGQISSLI
As to the kind of experiment: Inhibition of Glycogen Synthase Kinase-3β in vitro assay. Format: biochemical.
Procedure: The in vitro GSK-3β inhibitory activity of compounds of this invention was determined with a truncated form of recombinant rabbit GSK-3β enzyme.
The construct was cloned in pGEX-3X vector according to the procedure described in Wang, Q. M. et al., J. Biol. Chem. 269, 14566-14574 (1994). Ten amino acids at the N-terminus were deleted to obtain constitutively active GSK-3β ((see Murai H. et al., FEBS Lett. 392,153-60, (1996)). GSK-3β was expressed in BL21 DE3 cells. The cells were grown at 37° C. until they reached mid log phase and then induced with isopropyl-beta-(D)-thiogalactopyranoside (final concentration 0.4 mM) at 30° C. for 2 h. The cells were homogenized and the cell extract was loaded on a glutathione sepharose 4B column. GSK-3β was eluted with glutathione buffer (50 mM Tris pH 8 and 10 mM reduced glutathione). The eluate was collected in 3 minute fractions and assayed for GSK-3β content on a 10% SDS PAGE (polyacrylamide gel electrophoresis). Fractions above 20% peak height were pooled, aliquoted, and stored at −80° C. until used.
ATP (1 μCi), and 2 μl of compounds of this invention in DMSO (various concentrations). 15 μl of GSK-3β (various concentrations) was added and the reaction mixture was incubated at 30° C. for 1 h. The reaction was stopped by transferring 25 μl of the reaction mixture to a phosphocellulose plate containing 130 μl of 1.85% phosphoric acid. The free radionucleotides in the membrane were washed off under vacuum with 1.85% phosphoric acid (5 times). After the last wash, the plate was transferred to an adoptor plate and 50 μl of scintillation cocktail (Microscint-20, Packard, cat. #20-133) was added to each well and the amount of radioactivity was counted in a top counter.

In series [2] the test system is Ovalbumin-sensitized Brown-Norway rats. Briefly: Study GSK8 - bone formation in rats treated with Compound II-3. Format: in vivo, rat. Conditions: twice daily oral gavage Days 6-8 and 13-23, liposome formulation. The procedure: Ovalbumin-sensitized Brown-Norway rats were used. They were sensitized i.p. with 100 μg of OA (ovalbumin) in 0.2 ml alum once every week for three weeks (Day 0, 7 and 14). Seven days after the final sensitization (Day 21), rats were challenged with 1% OA for 45 minutes and euthanized 72 hrs later (day 24). Compound II-3 was given twice daily by oral gavage on Days 6-8 and Days 13-23. Compound was prepared as a liposome formulation—8 mg/ml liposome solution in a liposome composition of 1.44 grams of compound and 54 grams of L-alpha-phosphatidylcholine in 160 ml of sterile water for injection.
Femur samples were decalcified in 10% formic acid, embedded in paraffin, sectioned at five micron thickness and stained with hematoxylin and eosin.

For series [3], the system named is Male Wistar rats. As to the kind of experiment: Study MT021 - bone formation in rats with Compound II-9. The class given is in vivo, rat. The protocol: Compound was formulated as a solution in 10% w/v Solutol. Male Wistar rats were dosed by oral gavage, once per day for 14 days at 25, 75 or 150 mg/kg/day and compared to vehicle control (10% Solutol, 10 ml/kg/day). Complete necroscopies were done and the tissues preserved in 10% formalin. Femur, sternum and vertabra were processed and analyzed as described in Example 3.

The subject of series [4] is osteopenic rat model. Briefly: Bone anabolism in the rat (osteopenic rat model; bone mineral density, serum and urine calcium). The class given is in vivo. The procedure:
. Three month old rats are ovariectomized (Ovx) and administered either bovine parathyroid hormone (Amino Acids^1-34) (bPTH in Table) or one of the compounds of the present invention once a day by mouth starting at least 4 weeks post-ovariectomy and continuing until final sacrifice after 3 weeks of daily treatment. Control groups, both sham (rats that were not ovariectomized) and Ovx, received vehicle only. Bovine parathyroid hormone, bPTH, was tested at 40 ug/kg (optimal dose) as an internal positive control for anabolic activity. […] Blood and urine samples were collected at 2-3 weeks after initiation of treatment and the amount of calcium in the serum and urine was determined.
The bone mineral density of the right femur was determined using the High Resolution Software on a QDR-4500W Bone Densitometer™ (Hologic, Waltham, Mass.). The animals were scanned by placing them on a plexiglass block in a supine position such that the right leg was perpendicular to the main body and the tibia was perpendicular to the femur. The increase in the bone mineral density and the amount of calcium in the urine and the serum for the compounds are given in the table below.

The mark [5] stands for this setting: Ovx rats, 30 mg/kg/day by mouth.
[6] abbreviates: Sham (intact) rats, 30 mg/kg/day by mouth.
The mark [7] stands for this setting: Ovx rats, 0.04 mg/kg/day, Compound X study.
[8] abbreviates: Ovx rats, 0.04 mg/kg/day, III-2 Ovx study.
[9] abbreviates: Sham (intact) rats, 0.04 mg/kg/day.

In turn, `Cn1cc(C2=C(c3cccc(NCCCO[Si](C)(C)C(C)(C)C)c3)C(=O)NC2=O)c2ccccc21` returned a melting point of 58 to 65 °C.
On the same count and under the same terms, as for `Cn1cc(C2=C(c3ccccc3OCC(O)CO)C(=O)NC2=O)c2ccccc21` (stereo not shown) [Compound I-1], the figure is 245 to 247.1 °C.
As for `Nc1nc(NCCNc2ncc(-c3ncc[nH]3)c(-c3ccc(Cl)cc3Cl)n2)ccc1[N+](=O)[O-]` [Compound X, N^6-{2-[4-(2,4-dichloro-phenyl)-5-(1H-imidazol-2-yl)-pyrimidin-2-ylamino]-ethyl}-3-nitro-pyridine-2,6-diamine, reference compound], in series [1] (GSK-3β assay of Biological Example 1), the pIC50 was 8.77.
`Cn1cc(C2=C(c3cccc(OC[C@H](O)CO)c3)C(=O)NC2=O)c2ccccc21` [II-3] came in with a melting point of 177.7 to 178 °C. The “cancellous bone under the growth plate of the femur (light microscopy)” value in series [2] is reported as “moderate increases in cancellous bone”. Besides, the pIC50 in series [1] is 8.49.
On to `Cn1cc(C2=C(c3cccc(OCCN4CCOCC4)c3)C(=O)NC2=O)c2ccccc21` [II-4], for which the melting point was 197.7 to 199 °C.
Regarding `Cl.Cn1cc(C2=C(c3cccc(NCC(O)CO)c3)C(=O)NC2=O)c2ccccc21` (stereo not shown) [II-9], the melting point lay within 160 to 163.5 °C. Further, the “animals with increased cancellous bone” value in series [3] (25 mg/kg group, oral, 14 days) is “only one animal”. Also, the “rats with increased new bone formation” value in series [3] (150 mg/kg group, oral, 14 days) was “Five out of six”. Besides, the “cancellous bone (femur, sternum, vertebra)” value in series [3] (oral gavage once per day for 14 days at 25, 75 or 150 mg/kg/day) is recorded as “Increased cancellous bone was observed in all groups”. Further, the pIC50 in series [1] was 8.82.
As to `Cl.Cn1cc(C2=C(c3cccc(NCC(O)CO)c3)C(=O)NC2=O)c2cc(F)ccc21` (stereo not shown) [III-2], in series [4] (setting [5]), the “LUMBAR SPINE % 3 wk BMD Change” value turned out to be 7.9 ± 1.8% and the “WHOLE FEMUR % 3 wk BMD Change” value was determined as 11.6 ± 0.9%. For the same compound, in series [4] (setting [6]), the “LUMBAR SPINE % 3 wk BMD Change” value was 9.5 ± 1.8% and the “WHOLE FEMUR % 3 wk BMD Change” value amounted to 13.1 ± 1.3%.
Turning to “bPTH: bovine parathyroid hormone (Amino Acids 1-34), internal positive control for anabolic activity”, the “LUMBAR SPINE % 3 wk BMD Change” value in series [4] (setting [7]) is recorded as 8.6 ± 1.8%; in series [4] (setting [8]) it was 12.2 ± 1.5%; in series [4] (setting [9]), 15.7 ± 0.8%. Besides, the results for the “WHOLE FEMUR % 3 wk BMD Change” value in series [4] (setting [7]), in series [4] (setting [8]) and in series [4] (setting [9]) were 7.0 ± 1.1%, 16.6 ± 0.9% and 11.7 ± 1.0%, respectively.
